Here are results for three compounds from US4755529A, “Guaiazulene derivatives and their methods of use” (Harbor Branch Oceanographic Institution Inc., priority 1986, dated 1988).

Converted amounts (≈) assume the structure as drawn.

Test [1] concerns P388 mouse leukemia cells. Briefly: P388 mouse leukemia cell assay. The format is cell-based. Conditions: 48 hours. As to the method:
P388 mouse leukemia cells are grown in Dulbecco MEM medium with 10% horse serum 4 mM, glutamine, and 20 μg/ml gentamycin (Biologos, Inc.). Cells are incubated in 10% CO2 and subcultured 2 times per week.
1. Add composition to each well of a 24-well plate or tube and allow solvent to evaporate to dryness.
2. Add 2 ml (1.2×10^5) cells to each well or tube and mix.
3. Incubate in 10% CO2 at 37° for 48 hours.
4. Read plates with an inverted microscope, scoring activity from 1+ to 4+ as follows: ND (not detectable), >90%, 1+, 75-90%; 2+, 50-74%; 3+, 25-49%; 4+, <25% of control growth. Alternatively, scoring may be expressed as IC50 which represents the minimum concentration of the composition required to inhibit 50% of the cell growth on the plate. Cell counts are performed on each tube and results are reported as percent of control.

A further test relates to C. albicans. Briefly: Minimum inhibitory concentration (MIC), anti-Candida assay. The format is cell-based. The settings on record: approximately 1000 cells/mL, 37° C. overnight. The protocol:
Candida albicans: C. albicans (Ca) is grown on Sabouraud dextrose agar to produce single colonies one of which is used to inoculate Sabouraud dextrose broth. The broth is incubated at 37° C. with shaking at 200 rpm for 18 hrs., the resultant culture is frozen with 10% (v/v) glycerol at -80° C. and used as the inoculum for the anti-Candida assay. Two-fold dilutions of the drug are prepared in 50 μL volumes of Sabouraud dextrose broth using 96-well microtiter plates. An inoculum of C. albicans is added in a small volume to give a cell density of approximately 1000 cells/mL. Plates are incubated at 37° C. overnight. 10 uL of Triphenyl tetrazolium chloride (1% w/v) is then added to each well; a further 2 hour incubation results in a deep coloration of the microorganism.

In test [2] the test system is mixed lymphocytes (BALB/c+C57BL/6). Briefly: Mixed lymphocyte reaction (MLR) assay. The format is cell-based, murine. Conditions: Mus musculus, percent of positive control, 3H-thymidine, immunostimulatory criterion 150% or greater, read-out: Immunomodulatory activity, % Reference; for activity at 5 µg/mL: 5 ug/ml; for activity at 50 µg/mL: 50 ug/ml. As to the method: The assay method was uded to identify immune response modifiers of the compositions of Formulae I-III corresponding to composition 1-3 of the samples.
Aseptically removed spleens from BALB/c and C57BL/6 mice were homogenized, separately, in RPMI 1640 medium with 10% fetal calf serum, 2% L-glutamine,15 mM HEPES, 1% antibiotic-antimycotic solution and 25 μg/ml gentamycin (GIBCO). Lymphocytes were then derived by differential cetrifugation after red blood cell lysing and serial cell washing in complete media. Cells were adjusted to equal concentrations (2.5×10^6 cells/ml) and combined after removal of negative control aliquots. Incubation conditions for the cells were 5% CO2, 95% air at 37° C.
1. Add composition to each well of a 96-well plate and allow solvent to evaporate to dryness, if not aqueous.
2. Add 0.2 ml mixed lymphocytes (BALB/c+C57BL/6) to each well and mix.
3. Incubate in 5% CO2 at 37° C. for 86 hours.
4. Pulse wells with 0.1 ml ^3 H-thymidine (1 uCi/well).
5. Incubate in 5% CO2 at 37° C. for 6 hours.
6. Harvest plates and add 2 ml scintillant to each vial containing a filter disc.
7. Count vials in a liquid scintillation counter (Beckman).
8. Average replicate counts and report data as percent of positive control. The criteria for immunostimulatory effectiveness is a value of 150%, or greater, above control values for mixed lymphocytes in culture.

For `Cc1cc2c(cc3c(C)ccc1-3)C(C)CO2` (stereo not drawn) [Composition (1), dihydrolinderazulene], half-maximal inhibition in test [1] (IC50) was put at 35 µg/mL (≈ 165 µM). Moreover, the MIC against C. albicans came to 50 µg/mL (≈ 236 µM). Moreover, in test [2], the activity at 5 µg/mL worked out at 255% and the activity at 50 µg/mL was 1%.

As to `Cc1ccc(C(C)C)cc2c(C)ccc1-2` [Composition (2), guaiazulene], 35 µg/mL (≈ 176 µM) corresponded to half-maximal inhibition in test [1] (IC50). This compound also yielded an MIC against C. albicans of 25 µg/mL (≈ 126 µM). Further, in test [2], the activity at 5 µg/mL came out at 284% and the activity at 50 µg/mL came to 351%.

The compound `Cc1cc2occ(C)c2cc2c(C)ccc1-2` [Composition (3), linderazulene] gave an IC50 in test [1] of 50 µg/mL (≈ 238 µM). This compound also came in with an MIC with C. albicans of 12.5 µg/mL (≈ 59.4 µM). In addition, in test [2], the activity at 5 µg/mL was 155% and the activity at 50 µg/mL was 19%.
